For assay [1], the system named is TGF-β signaling (TGF-β pSMAD, MPC-11). As to the kind of experiment: AlphaScreen SureFire SMAD3 (p-Ser423/425) assay, inhibition of TGF-β signaling. The class given is cell-based. The settings on record: Mus musculus, p-SMAD-3 (Ser423/425) in cell lysate after TGF-β stimulation. In short, it runs like this:
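Cells in collagen-coated plates were pretreated about 10 minutes with three-fold DMSO serial dilutions of compound, then stimulated with TGF-β. They were lysed with about 25 μL 1× Lysis Buffer. Lysates in 384-well plates were incubated protected from light with Acceptor bead mix for 2 hours and Donor bead mix for 1½ hours. p-SMAD-3 (Ser423/425) was read on Synergy-4 or Enspire using AlphaScreen pSMAD3 settings.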

The subject of assay [2] is GDF8 signaling (GDF pSMAD, MPC11). As to the kind of experiment: AlphaScreen SureFire SMAD3 (p-Ser423/425) assay, inhibition of GDF8 signaling. The settings on record: Mus musculus, MPC-11, p-SMAD-3 (Ser423/425) in cell lysate after GDF8 stimulation. The class given is cell-based.

In general, IC50 refers to the midpoint of a concentration-inhibition curve.

Regarding `Fc1ccc(-c2nn3c(c2-c2ccc4ncnn4c2)CCC3)cc1Cl` [Compound 148, 6-(2-(3-Chloro-4-fluorophenyl)-5,6-dihydro-4H-pyrrolo[1,2-b]pyrazol-3-yl)-[1,2,4]triazolo[1,5-a]pyridine], the 50% inhibitory concentration (IC50) is 311 nM in assay [1] and 98.4 nM in assay [2].

For the molecule `Fc1ccc(-c2nn3c(c2-c2ccc4[nH]ncc4c2)CCC3)cc1OC(F)(F)F` [Compound 150, 5-(2-(4-Fluoro-3-trifluoromethoxyphenyl)-5,6-dihydro-4H-pyrrolo[1,2-b]pyrazol-3-yl)-1H-indazole], the values for the IC50 in assay [1] and in assay [2] were 1320 nM and 310 nM, respectively.

With `Fc1ccc(-c2nn3c(c2-c2ccc4nccn4c2)CCC3)cc1OC(F)(F)F` [Compound 151, 6-(2-(4-Fluoro-3-trifluoromethoxyphenyl)-5,6-dihydro-4H-pyrrolo[1,2-b]pyrazol-3-yl)imidazo[1,2-a]pyridine], the figures for the IC50 in assay [1] and in assay [2] were 1160 nM and 389 nM, respectively.

With `Fc1ccc(-c2nn3c(c2-c2ccc4ncsc4c2)CCC3)cc1OC(F)(F)F` [Compound 152, 6-(2-(4-Fluoro-3-trifluoromethoxyphenyl)-5,6-dihydro-4H-pyrrolo[1,2-b]pyrazol-3-yl)benzo[d]thiazole], the figures for the IC50 in assay [1] and in assay [2] were 1750 nM and 486 nM, respectively.

`Fc1ccc(-c2nn3c(c2-c2ccc4nccnc4c2)CCC3)cc1OC(F)(F)F` [Compound 153, 6-(2-(4-Fluoro-3-trifluoromethoxyphenyl)-5,6-dihydro-4H-pyrrolo[1,2-b]pyrazol-3-yl)quinoxaline]: the IC50 in assay [1] was 1780 nM; in assay [2] it was 551 nM.

As to `Fc1ccc(-c2nn3c(c2-c2ccc4ncnn4c2)CCC3)cc1OC(F)(F)F` [Compound 154, 6-(2-(4-Fluoro-3-trifluoromethoxyphenyl)-5,6-dihydro-4H-pyrrolo[1,2-b]pyrazol-3-yl)-[1,2,4]triazolo[1,5-a]pyridine], the IC50 in assay [1] was 825 nM; in assay [2] it was 448 nM.

For `Fc1ccc(-c2nn3c(c2-c2ccc4[nH]ncc4c2)CCC3)c(F)c1Cl` [Compound 155, 5-(2-(3-Chloro-2,4-difluorophenyl)-5,6-dihydro-4H-pyrrolo[1,2-b]pyrazol-3-yl)-1H-indazole], the IC50 stood at 1020 nM in assay [1] and 105 nM in assay [2].

With `Fc1ccc(-c2nn3c(c2-c2ccc4cn[nH]c4c2)CCC3)c(F)c1Cl` [Compound 156, 6-(2-(3-Chloro-2,4-difluorophenyl)-5,6-dihydro-4H-pyrrolo[1,2-b]pyrazol-3-yl)-1H-indazole], the IC50 in assay [1] came out at 2840 nM; in assay [2], 440 nM.

Turning to `Fc1ccc(-c2nn3c(c2-c2ccc4nccn4c2)CCC3)c(F)c1Cl` [Compound 157, 6-(2-(3-Chloro-2,4-difluorophenyl)-5,6-dihydro-4H-pyrrolo[1,2-b]pyrazol-3-yl)imidazo[1,2-a]pyridine], the IC50 in assay [1] worked out at 685 nM; in assay [2], 133 nM.

Turning to `Fc1ccc(-c2nn3c(c2-c2ccc4ncsc4c2)CCC3)c(F)c1Cl` [Compound 158, 6-(2-(3-Chloro-2,4-difluorophenyl)-5,6-dihydro-4H-pyrrolo[1,2-b]pyrazol-3-yl)benzo[d]thiazole], the IC50 in assay [1] stood at 549 nM; in assay [2], 84.2 nM.

On to `Fc1ccc(-c2nn3c(c2-c2ccc4nccnc4c2)CCC3)c(F)c1Cl` [Compound 159, 6-(2-(3-Chloro-2,4-difluorophenyl)-5,6-dihydro-4H-pyrrolo[1,2-b]pyrazol-3-yl)quinoxaline], for which the results for the IC50 in assay [1] and in assay [2] were 2730 nM and 526 nM, respectively.

On to `Fc1ccc(-c2nn3c(c2-c2ccc4ncnn4c2)CCC3)c(F)c1Cl` [Compound 160, 6-(2-(3-Chloro-2,4-difluorophenyl)-5,6-dihydro-4H-pyrrolo[1,2-b]pyrazol-3-yl)-[1,2,4]triazolo[1,5-a]pyridine], for which the half-inhibitory concentration (IC50) in assay [1] is 738 nM; in assay [2] it was 296 nM.

These data come from US10822337B2, “TGF-β inhibitorC” (Rigel Pharmaceuticals, Inc., priority 2015, dated 2020).
